In paper PMC7650794, “Pharmacological Modulation of Blood–Brain Barrier Permeability by Kinin Analogs in Normal and Pathologic Conditions” (Pharmaceuticals, 2020):
Non-standard residues stand in square brackets, D forms with d. Residues, ends and D or L forms follow the SMILES beside them. *: point of attachment. X1 = COc1ccc(C[C@@H](CN[C@@H](CCCNC(=N)N)C(=O)O)N*)cc1; Hyp = O=C(O)[C@@H]1C[C@@H](O)CN1; 2Thi = N[C@@H](Cc1cccs1)C(=O)O

What was measured:
human B2R [1] = molecular target: T1, human B2R (Homo sapiens, UniProt P30411); experiment: IP-One accumulation assay, human B2R-HEK293 cells; assay type: cell-based; details: IP1 accumulation, 30 min, room temperature, pH 7.4, 50 mM LiCl, human B2R-HEK293, 15,000 cells per well; mean of two independent experiments performed in duplicates; read-out: IP1 Assays (EC50; nM)
T1 construct: expressed in transfected cells; host or cells: QBI HEK 293A cells, lentiviral transduction with pCDH-BDKRB2, puromycin selection
T1 sequence (P30411 1-391): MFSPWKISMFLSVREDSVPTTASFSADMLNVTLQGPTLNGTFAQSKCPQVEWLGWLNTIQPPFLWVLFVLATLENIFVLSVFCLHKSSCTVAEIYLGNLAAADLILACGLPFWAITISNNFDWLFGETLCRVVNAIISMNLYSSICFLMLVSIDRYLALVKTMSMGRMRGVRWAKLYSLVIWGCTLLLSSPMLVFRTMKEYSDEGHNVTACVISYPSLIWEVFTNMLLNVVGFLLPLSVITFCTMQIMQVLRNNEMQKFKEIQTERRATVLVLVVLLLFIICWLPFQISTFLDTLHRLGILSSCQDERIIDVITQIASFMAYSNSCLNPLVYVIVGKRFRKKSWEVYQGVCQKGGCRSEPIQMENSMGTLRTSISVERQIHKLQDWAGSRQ
Protocol: The IP-One assay was performed on living, adherent human B2R-HEK293 cells according to the manufacturer’s recommendations (Cisbio, #62IPAPEB, Bedford, MA, USA). […] IP1-d2 and anti-IP1-Cryptate were added for at least 1 h. Fluorescence signal was measured using a Tecan M1000 plate reader (excitation at 320 nm and emission at 620 and 665 nm). EC50 values were calculated by curve-fitting using GraphPad Prism 8.2.

human B2R [2] = molecular target: T1, human B2R; experiment: Radioligand displacement binding assay, [3H]BK, human B2R-HEK293 cells; details: displacement of 1 nM [3H]BK, living adherent HEK293 cells stably expressing human B2R, serum-free DMEM, 1.5 h, 4 °C; mean of two independent experiments performed in duplicates
Protocol: The pCDH-BDKRB2 vector was produced from the plasmid pcDNA3.1/human BDKRB2 by PCR amplification using the primers 5′-[…]-3′ and 5′-[…]-3′, and introduced into pCDH-CMV-MCS-EF1 vector using BamHI et XbaI restriction sites. Lentiviruses were produced from pCDH-BDKRB2 vector in HEK293T cells using the X-tremeGENE HP transfection reagent (Millipore-Sigma, Oakville, ON, Canada). Lentiviruses were harvested 48 h post-transfection and used to infect QBI HEK 293A cells (ATCC). Transduced cells were selected using 5 µg/mL of puromycin (Thermo Fisher, Burlington, On, Canada).
Radioligand displacement binding assays were performed as we previously described, with slight modifications. HEK293 cells stably expressing human B2R were used for these assays (see text above). […] Radioactivity of samples was measured by a β-scintillation counter (PerkinElmer, Woodbridge, On, Canada). Binding affinities of peptides were expressed in terms of IC50 values—the molar concentration of an unlabeled agonist causing 50% displacement of specific binding (GraphPad Prism 8.2).

[3] = system: angiotensin-converting enzyme (ACE, alias kininase II); details: cited from earlier work
[4] = system: BBB, normal and focal-irradiated dog brains; details: in vivo, iv; cited from earlier work
Text: Radiation therapy is part of the standard treatment paradigm for CNS tumors. The short-term effects of prior radiotherapy on the BBB opening induced by Labradimil have been investigated in normal and focal-irradiated dog brains. […] In this study, we focused on late post-radiotherapy complications leading to radionecrosis (Figure 4), which c ...

Question: For `COc1ccc(C[C@@H](CN[C@@H](CCCNC(=N)N)C(=O)O)NC(=O)[C@@H]2CCCN2C(=O)[C@H](CO)NC(=O)[C@H](Cc2cccs2)NC(=O)CNC(=O)[C@@H]2C[C@@H](O)CN2C(=O)[C@@H]2CCCN2C(=O)[C@@H](N)CCCNC(=N)N)cc1` [Labradimil, [Hyp^3, Thi^5, (^4Me)Tyr^8(ΨCH2NH)Arg^9]-BK] (H-RP[Hyp]G[2Thi]SP-X1), which EC50 (human B2R [1]) is on record?
Answer: Its EC50 is 47 nM.

Question: What about the IC50 (human B2R [2]) of the same compound?
Answer: Its IC50 is 17 nM.

Question: What about the “protection against enzymatic degradation by ACE” value [3] of the same compound?
Answer: The value was “fully protected against enzymatic degradation by the angiotensin-converting enzyme”.

Question: And the “vasogenic edema associated with focal radiation injury” value [4]?
Answer: The value was “not exacerbating the vasogenic edema associated with focal radiation injury”.
